Earlier results in patent US20190290635A1, “METHODS OF TREATING BRAIN CANCER USING AGENTS THAT ALTER ACTIVITY OF A METABOLIC PATHWAY” (Clear Creek Bio, Inc., priority 2018, published 2019).

Key:
[1] = 650 mg/m^2 brequinar (days 1, 8 and 15) with 75 mg/m^2 cisplatin (day 1); cited from earlier work
[2] = 43 patients; patient with papillary carcinoma of the thyroid; cited from earlier work

**Q.** Which “modification of individual drug pharmacokinetic parameters in combination with cisplatin” value [1] does the source give for `Cc1c(-c2ccc(-c3ccccc3F)cc2)nc2ccc(F)cc2c1C(=O)O` [Brequinar, 6-fluoro-2-(2′-fluoro-1,1′ biphenyl-4-yl)-3-methyl-4-quinoline carboxylic acid] here?
**A.** Its value is “without significant modifications”.

**Q.** For `Cc1c(-c2ccc(-c3ccccc3F)cc2)nc2ccc(F)cc2c1C(=O)O` [Brequinar sodium], which tumor response observed [2] is on record?
**A.** Its tumor response observed is “One mixed response”.
